According to patent US20230077362A1 (CORTEVA AGRISCIENCE LLC, priority 2019, published 2023):
Read-outs that look alike come from different tables or passages of the source.

How the values were obtained:
[1] = system: Beet Armyworm (Spodoptera exigua) ("BAW"), second instar larvae; assay: Bioassay on beet armyworm (BAW), 128-well diet tray assay; type: in vivo; conditions: for pest or weed control at 50 µg/cm2: Spodoptera exigua
Outline: (§1)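 Sealed trays, 25° C., 14:10 light:dark, 5–7 d. Per-well % mortality recorded, mean of eight wells reported.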

[2] = system: Cabbage Looper (Trichoplusia ni) ("CL"), second instar larvae; assay: Bioassay on cabbage looper (CL), 128-well diet tray assay; type: in vivo; conditions: for pest or weed control at 50 µg/cm2: Trichoplusia ni
Outline: as §1

[3] = read-out: BAW (Biological Results, rating)
[4] = read-out: CL (Biological Results, rating)

SMILES | pest or weed control at 50 µg/cm2 [1, 3] | pest or weed control at 50 µg/cm2 [2, 4] | pest or weed control at 50 µg/cm2 ([1]; read-out: BAW rating) | pest or weed control at 50 µg/cm2 ([2]; read-out: CL rating) | other results
O=C(/N=C1\SCC(=O)N1c1ccccc1C(F)(F)F)Nc1ccc(-c2ncn(-c3ccc(OC(F)(F)F)cc3)n2)cc1 [Compound H10] | 50 to 100% | 50 to 100% | – | – | –
Cc1ccc(COCC(F)(F)Cl)c(N2C(=O)CS/C2=N\C(=O)Nc2ccc(-c3ncn(-c4ccc(OC(F)(F)F)cc4)n3)cc2F)c1 [Compound J437] | – | – | – | – | BAW rating ([1]; Table ABC, species BAW, C = not tested, D = no activity noticed): A (50-100); CL rating ([2]; Table ABC, species CL, C = not tested, D = no activity noticed): A (50-100)
COc1ccc(CC(F)(F)F)c(N2C(=O)CS/C2=N\C(=O)NCC(F)c2ccc(-c3ncn(-c4ccc(OC(F)(F)F)cc4)n3)c(OC)c2)c1 (centres unmarked) [Compound H17] | 50 to 100% | 50 to 100% | – | – | –
Cc1ccc(COCC(F)(F)F)c(N2C(=O)CS/C2=N\C(=O)Nc2ccc(-c3nc(-c4ccc(OC(F)(F)F)cc4)no3)cc2F)c1 [Compound J427, (Z)-1-(2-Fluoro-4-(3-(4-(trifluoromethoxy)phenyl)-1,2,4-oxadiazol-5-yl)phenyl)-3-(3-(5-methyl-2-((2,2,2-trifluoroethoxy)methyl)phenyl)-4-oxothiazolidin-2-ylidene)urea] | – | – | 50 to 100% | 50 to 100% | –
COC(C)c1ccc(C)cc1N1C(=O)CS/C1=N\C(=O)Nc1ccc(-c2ncn(-c3ccc(C(F)(F)F)cn3)n2)cc1 (centres unmarked) [Compound J338, (Z)-1-(3-(2-(1-Methoxyethyl)-5-methylphenyl)-4-oxothiazolidin-2-ylidene)-3-(4-(1-(5-(trifluoromethyl)pyridin-2-yl)-1H-1,2,4-triazol-3-yl)phenyl)urea] | 50 to 100% | 50 to 100% | – | – | –
Cc1ccc(OCCC(F)(F)F)c(N2C(=O)CS/C2=N\C(=O)Nc2ccc(-c3ncn(-c4ccc(OC(F)(F)F)cn4)n3)cc2C#N)c1 [Compound J264, (Z)-1-(2-Cyano-4-(1-(5-(trifluoromethoxy)pyridin-2-yl)-1H-1,2,4-triazol-3-yl)phenyl)-3-(3-(5-methyl-2-(3,3,3-trifluoropropoxy)phenyl)-4-oxothiazolidin-2-ylidene)urea] | 50 to 100% | 50 to 100% | – | – | –
Cc1ccc(C(C)C)c(N2C(=O)CS/C2=N\C(=O)Nc2ccc(-n3cnc(-c4ccc(OC(F)(F)F)cc4)n3)cc2Cl)c1 [Compound J728, (Z)-1-(2-Chloro-4-(3-(4-(trifluoromethoxy)phenyl)-1H-1,2,4-triazol-1-yl)phenyl)-3-(3-(2-isopropyl-5-methylphenyl)-4-oxothiazolidin-2-ylidene)urea] | – | – | 50 to 100% | 50 to 100% | –
COc1ccc(COCC(F)(F)F)c(N2C(=O)CS/C2=N\C(=O)Nc2ccc(-n3cnc(-c4ccc(C(F)(F)F)cc4)n3)cc2F)c1 [Compound J700, (Z)-1-(2-Fluoro-4-(3-(4-(trifluoromethyl)phenyl)-1H-1,2,4-triazol-1-yl)phenyl)-3-(3-(5-methoxy-2-((2,2,2-trifluoroethoxy)methyl)phenyl)-4-oxothiazolidin-2-ylidene)urea] | – | – | 50 to 100% | 50 to 100% | –
Cc1ccc(OCCCC(F)(F)F)c(N2C(=O)CS/C2=N\C(=O)Nc2ccc(-n3cnc(-c4ccc(OC(F)(F)F)cc4)n3)cc2C)c1 [Compound J465, (Z)-1-(3-(5-Methyl-2-(4,4,4-trifluorobutoxy)phenyl)-4-oxothiazolidin-2-ylidene)-3-(2-methyl-4-(3-(4-(trifluoromethoxy)phenyl)-1H-1,2,4-triazol-1-yl)phenyl)urea] | – | – | 50 to 100% | 50 to 100% | –
COCOc1cc(-c2ncn(-c3ccc(OC(F)(F)F)cc3)n2)ccc1NC(=O)/N=C1\SCC(=O)N1c1cc(C)ccc1OCC(F)(F)F [Compound J171, (Z)-1-(2-(Methoxymethoxy)-4-(1-(4-(trifluoromethoxy)phenyl)-1H-1,2,4-triazol-3-yl)phenyl)-3-(3-(5-methyl-2-(2,2,2-trifluoroethoxy)phenyl)-4-oxothiazolidin-2-ylidene)urea] | 50 to 100% | 50 to 100% | – | – | –
